{
  "source": "patent US12077778B2",
  "about": "“Methods of generating human inner ear sensory epithelia and sensory neurons” (INDIANA UNIVERSITY RESEARCH AND TECHNOLOGY CORPORATION, priority 2015, dated 2024)",
  "molecules": {"B1": {"name": "BMP4: recombinant human BMP4, agonist of BMP signaling (protein, UniProt P12644 293-408, looked up)", "Bone morphogenetic protein 4": "SPKHHSQRARKKNKNCRRHSLYVDFSDVGWNDWIVAPPGYQAFYCHGDCPFPLADHLNSTNHAIVQTLVNSVNSSIPKACCVPTELSAISMLYLDEYDKVVLKNYQEMVVEGCGCR"}},
  "format_in_all_cases": "cell-based, human",
  "key": {"mND2-0 iPSCs": {"tested_on": "mND2-0 iPSCs", "test": "Non-neural ectoderm induction in mND2-0 iPSC aggregates", "description": "(§1) Curious whether endogenous BMP activity is sufficient for non-neural specification, we performed a co-treatment with the BMP inhibitor, LDN-193189 (hereafter, LSB; dual LDN/SB treatment referred to as LSB). […] We reasoned that variation in endogenous BMP levels may underlie the different outcomes and the BMP concentration may need to be fine-tuned for each cell line. […] With either the SB or SBB approaches, the resulting epithelia closely resembled […] generated with mPSCs^5,6. In contrast to our mouse culture, non-neural conversion occurs without off-target induction of Brachyury (BRA)^+ mesendoderm cells (FIGS. 9A-9C). The following data were generated using either the SB (WA25) or SBB (mND2-0) approaches.\n(§2) hPSC differentiation. To start differentiation, hPSC cells were dissociated with StemPro Accutase (Invitrogen) and distributed, 5,000 cells per well, onto 96-well V-bottom plates in E8 medium containing 20 μM Y-27632 (Stemgent) and Normocin. […] For some experiments, CDM containing a 18 μM CHIR99021 (3 μM final concentration; Stemgent) was added to the pre-existing 125 μl of media in each well—we determined that this treatment is optional for inner ear organoid production, but may improve induction of otic placode-like cells. […]"}, "WA25 cell aggregates": {"tested_on": "WA25 cell aggregates", "test": "Non-neural ectoderm induction in WA25 hESC aggregates (qPCR, immunostaining)", "experimental": "Following a 2-day incubation in E8 Medium, we transferred aggregates to CDM containing a low concentration of Matrigel and FGF-2 to stimulate epithelization and ectoderm differentiation on the aggregate surface. […] Remarkably, 100% of SB treated aggregates generated TFAP2^+ E-cadherin (ECAD)^+ epithelium with a surface ectoderm-like morphology by days 4-6 of differentiation—a time scale consistent with human embryogenesis (n=15 aggregates, 3 experiments; FIGS. 1B-1E; FIGS. 3A-3G). Over a period of 20 days, the epithelium expanded into a cyst composed of TFAP2^+ Keratin-5 (KRT5)^+ keratinocyte-like cells (FIGS. 6A-6E). From these findings, we concluded that treating WA25 cell aggregates with SB is sufficient to induce a non-neural epithelium.\nas §1\nas §2, with “Normocin. […] CDM contained a 50:50 mixture of F-12 Nutrient Mixture with GlutaMAX (Gibco) and Iscove's Modified Dulbecco's Medium with GlutaMAX (IMDM; Gibco) additionally supplemented with 0.5% Bovine Serum Albumin (BSA), 1× Chemically Defined Lipid Concentrate (Invitrogen), […] (Sigma), 15 μg ml^−1 Transferrin (Sigma), 450 μM Mono-Thioglycerol, and Normocin (see Table 1 for a detailed formulation).” for “Normocin.”\nQuantitative PCR. Analysis was performed as previously described on an ABI PRISM 7900HT Sequence Detection System (Applied Biosystems) or a Bio-Rad CFX96 quantitative PCR machine (Bio-Rad)^6. Data were normalized to L27 expression (internal control) and the fold change was calculated relative to Ct values from d0 WA25 aggregates using the ΔΔCt method. […]"}, "OEPD-induced aggregates": {"tested_on": "OEPD-induced aggregates", "test": "qPCR of PAX8/PAX2 expression after WNT and FGF signaling modulation, days 8-10", "details": "one exploratory experiment", "experimental": "Thus, we changed strategies by lengthening the initial culture phase to 12 days (with addition of fresh media on day 8) and testing the effect of transitioning the aggregates to Matrigel™ droplets.\nQuantitative PCR. Analysis was performed as previously described on an ABI PRISM 7900HT Sequence Detection System (Applied Biosystems) or a Bio-Rad CFX96 quantitative PCR machine (Bio-Rad)^6. Data were normalized to L27 expression (internal control) and the fold change was calculated relative to Ct values from d0 WA25 aggregates using the ΔΔCt method. Unless stated otherwise, data represent at least 3 separate biological samples from separate experiments. All indicators of statistical significance refer to comparisons between a given condition and the control group. Refer to Table 4 for primer details."}, "[1]": {"details": "day 2, 10 μM SB, or 10 μM SB + 10 ng/ml BMP4 (SBB)"}},
  "note": "“Also recorded” adds a separate entry of the source.",
  "data": [
    {"molecule": "NC(=O)c1ccc(-c2nc(-c3ccc4c(c3)OCO4)c(-c3ccccn3)[nH]2)cc1", "note": "[SB, SB-431542]", "values": [
      {"measurement": "cell types generated (marker immunostaining)", "setting": "mND2-0 iPSCs; mND2-0 iPSCs, day 6, 10 μM SB alone or with 2.5 ng/ml BMP4", "result": "generated PAX6^+ neuroectoderm and TFAP2^+ ECAD^− neural crest-like cells"},
      {"measurement": "aggregates that generated TFAP2+ E-cadherin (ECAD)+ epithelium with surface ectoderm-like morphology", "setting": "WA25 cell aggregates; 10 μM SB, days 4-6 of differentiation, n=15 aggregates, 3 experiments", "result": 100, "unit": "%"},
      {"measurement": "extraembryonic marker CDX2 expression (qPCR)", "setting": "WA25 cell aggregates; [1]", "result": "no corresponding CDX2 expression"},
      {"measurement": "non-neural marker genes TFAP2 and DLX3 expression (qPCR)", "setting": "WA25 cell aggregates; [1]", "result": "upregulated; also recorded: increase in TFAP2 and DLX3 expression"}
    ]},
    {"molecule": "Oc1nc(-c2ccc(C(F)(F)F)cc2)nc2c1CSCC2", "note": "[XAV939]", "values": [
      {"measurement": "PAX2 expression (qPCR) compared to DMSO controls", "setting": "OEPD-induced aggregates", "result": "only had a modest positive or negative impact on PAX2 expression"}
    ]},
    {"molecule": "CCN(CC)CCCCNc1ncc2cc(-c3cc(OC)cc(OC)c3)c(NC(=O)NC(C)(C)C)nc2n1", "note": "[PD-173074]", "values": [
      {"measurement": "PAX2 expression (qPCR) compared to DMSO controls", "setting": "OEPD-induced aggregates", "result": "likely inhibits PAX2 expression"}
    ]},
    {"molecule": "B1", "values": [
      {"measurement": "minimum BMP concentration that produced the morphological changes (translucent sphere)", "setting": "mND2-0 iPSCs; mND2-0 iPSCs with SB, 1.25-40 ng/ml tested, preliminary experiment", "result": 2.5, "unit": "ng/ml"},
      {"measurement": "mesendoderm markers BRA and EOMES expression (qPCR)", "setting": "WA25 cell aggregates; day 2, BMP4 (B) treatment", "result": "upregulated"}
    ]}
  ]
}
